Data set [1] in a line: Cytotoxicity against human HeLa cells. Type of data set: toxicity, cell-based.
The next data set deals with Plasmodium falciparum. Description: Antimalarial activity against Plasmodium falciparum 3D7. The data set is classed as functional, organism-based.
A short description of data set [2]: Cytotoxicity against human HL-60 cells. Type of data set: toxicity, cell-based.
The test system of another data set is Staphylococcus aureus. Description: Antimicrobial activity against Staphylococcus aureus 209. Type of data set: functional, organism-based.

Where “and” joins values, the source holds several entries; their conditions need not be identical. Equal entries are not always repeated.

Take `COc1ccc2c(c1OC)C(=O)c1ccc(/C=C(/C)CC(N)=O)c(O)c1C2=O`: the IC50 in data set [1] is > 30 µM and > 11.4 µg/mL; with Plasmodium falciparum, 1.21 µM and 0.5 µg/mL; in data set [2] it was > 30 µM and > 11.4 µg/mL; in the data set with Staphylococcus aureus, > 30 µM and > 11.4 µg/mL.
Turning to `COc1ccc2c(c1OC)C(=O)c1ccc(/C=C(/C)CC(=O)O)c(O)c1C2=O`, the IC50 is > 30 µM and > 11.5 µg/mL in data set [1]; 15 µM and 5.7 µg/mL with Plasmodium falciparum; > 30 µM and > 11.5 µg/mL in data set [2]; 18 µM and 6.9 µg/mL in the data set with Staphylococcus aureus.
As to `COc1ccc2c(c1OC)C(=O)c1ccc(/C=C(/C)CC(=O)NCC(=O)O)c(O)c1C2=O`, the IC50 in data set [1] was > 30 µM and > 13.2 µg/mL; with Plasmodium falciparum, > 30 µM and > 13.2 µg/mL; in data set [2], > 30 µM and > 13.2 µg/mL; with Staphylococcus aureus, > 30 µM and > 13.2 µg/mL.
With `COc1ccc2c(c1OC)C(=O)c1c(O)cc(/C=C(/C)CC(N)=O)c(O)c1C2=O`, the IC50 in data set [1] is > 30 µM and > 11.9 µg/mL; with Plasmodium falciparum it was 910 nM and 0.4 µg/mL; in data set [2], > 30 µM and > 11.9 µg/mL; in the data set with Staphylococcus aureus, > 30 µM and > 11.9 µg/mL.

As usually defined, the IC50 is the point on the concentration scale where inhibition reaches its midpoint.

For the origin of these results see ChEMBL document CHEMBL5385926, “Production of Kinanthraquinone D with Antimalarial Activity by Heterologous Gene Expression and Biotransformation in Streptomyces lividans TK23” (J Nat Prod, 2024).
